{
  "source": "patent US11357778B2",
  "about": "“Antagonist of the fibroblast growth factor receptor 3 (FGFR3) for use in the treatment or the prevention of skeletal disorders linked with abnormal activation of FGFR3” (INSTITUT NATIONAL DE LA SANTE ET DE LE RECHERCHE MEDICALE …, priority 2011, dated 2022)",
  "key": {"WT femurs": {"tested_on": "WT femurs", "experiment": "Ex vivo culture of E16.5 embryonic femur explants, bone length, wild type", "type": "cell-based, mouse", "details": "A31 2 mM, 5 days of culture", "procedure": "(§1) Six sets of ex vivo experiments were performed. Femur embryos at day E16.5 from WT (n=6) and Fgfr3^Y367C/+ (n=6) mice were used and incubated for 5 days in DMEM medium with antibiotics and 0.2% BSA (Sigma) supplemented with A31 or PD173074 (as control) at a concentration of 2 mM. Right femur was cultured in supplemented medium and compared with the left one cultured in control medium. Rib cage from E16.5 WT and Fgfr3^Y367C/+ mice embryos were isolated and stripped of all soft tissues. Primary chondrocytes were obtained from rib cages. The ribs were incubated in a pronase solution (Roche; 2 mg/ml) followed by a digestion in Collagenase A (Roche; 3 mg/ml) at 37° C. Isolated chondrocytes were plated out at a density of 2.105 cells in 6-well plates containing DMEM supplemented with 10% FCS and antibiotics, and were allowed to reach subconfluency. Cultures were supplemented with A31 or PD173074 (as control) at a concentration of 2 mM. […] To establish the effect of the inhibitors, the right femur was cultured in supplemented medium and compared with the left one cultured in control medium The bone length was measured at the beginning (before treatment) and at the end of time course. […] The genotype of WT, Fgfr3^Y367C/+ and Fgfr3^−/− mice were determined by PCR of tail DNA as previously described (Pannier et al., Biochim Biophys Acta, 1792: 140-147, 2009). […]"}, "cyclin D1": {"tested_on": "cyclin D1", "experiment": "Cyclin D1 immunoblot in costal primary chondrocytes from E16.5 ribs", "type": "cell-based, mouse", "details": "A31-treated murine chondrocytes vs untreated", "procedure": "as §1, with “C.” for “C. Isolated chondrocytes were plated out at a density of 2.105 cells in 6-well plates containing DMEM supplemented with 10% FCS and antibiotics, and were allowed to reach subconfluency. Cultures were supplemented with A31 or PD173074 (as control) at a concentration of 2 mM.”\nImmunoprecipitation were performed by incubating […] rabbit anti-FGFR3 (Sigma)/[…] protein with protein A-agarose (Roche). […] Bound proteins were detected by chemiluminescence (ECL, Amersham). The blots were rehybrididized with an antipan-actin antibody for quantification (Millipore). […]"}, "[1]": {"tested_on": "FGFR3^Y373C, FGFR3^K650E, FGFR3^K650M", "experiment": "Constitutive FGFR3 phosphorylation in transfected human chondrocyte lines / HEK cells (immunoprecipitation, immunoblot, immunocytochemistry)", "type": "cell-based", "procedure": "Human Embryonic Kidney (HEK) cells and human chondrocyte lines (Benoist-Lasselin et al., FEBS Lett, 581: 2593-2598, 2007.) were transfected transiently with FGFR3 human constructs (FGFR^3Y373C, FGFR3^K650M, FGFR3^K650E) (Gibbs, L. and Legeai-Mallet, L. Biochim Biophys Acta, 1773: 502-512, 2007) using Fugene 6 (Roche). A31 (31) or PD173074 (Parke Davies) were added at a concentration of 2 mM overnight. Transfected cells were lysed in RIPA buffer (50 mM Tris-HCl pH 7.6, 150 mM NaCl, 0.5% NP40, 0.25% sodium deoxycholate, supplemented with protease and phosphatase inhibitors).\nImmunoprecipitation were performed by incubating […] rabbit anti-FGFR3 (Sigma)/[…] protein with protein A-agarose (Roche). […] Bound proteins were detected by chemiluminescence (ECL, Amersham). The blots were rehybrididized with an antipan-actin antibody for quantification (Millipore).\nFor immunocytochemistry, the inventors used the following primary antibodies: anti-FGFR3 antibodies (1:400 dilution; Sigma) and anti-phosphotyrosine antibodies (1:200 dilution; Cell Signaling) and secondary antibodies Alexa Fluor®488 goat antirabbit and Alexa Fluor®568 goat anti-mouse (1:400 dilution; Molecular Probes). Cells were covered with Faramount Aquaeous Mounting Medium (Dako) and analyzed using an Olympus PD70-IX2-UCB microscope. […]"}, "Fgfr3^Y367C/+ femurs": {"tested_on": "Fgfr3^Y367C/+ femurs", "experiment": "Ex vivo culture of E16.5 embryonic femur explants, bone length", "type": "cell-based, mouse", "procedure": "Six sets of ex vivo experiments were performed. Femur embryos at day E16.5 from WT (n=6) and Fgfr3^Y367C/+ (n=6) mice were used and incubated for 5 days in DMEM medium with antibiotics and 0.2% BSA (Sigma) supplemented with A31 or PD173074 (as control) at a concentration of 2 mM. Right femur was cultured in supplemented medium and compared with the left one cultured in control medium. Rib cage from E16.5 WT and Fgfr3^Y367C/+ mice embryos were isolated and stripped of all soft tissues. Primary chondrocytes were obtained from rib cages. The ribs were incubated in a pronase solution (Roche; 2 mg/ml) followed by a digestion in Collagenase A (Roche; 3 mg/ml) at 37° C. Isolated chondrocytes were plated out at a density of 2.105 cells in 6-well plates containing DMEM supplemented with 10% FCS and antibiotics, and were allowed to reach subconfluency. Cultures were supplemented with A31 or PD173074 (as control) at a concentration of 2 mM. Cells were treated with A31 (2 mM) PD173074 (as control) in serum-free DMEM supplemented with 0.2% BSA and harvested after 24 h. To establish the effect of the inhibitors, the right femur was cultured in supplemented medium and compared with the left one cultured in control medium The bone length was measured at the beginning (before treatment) and at the end of time course. Each experiment was repeated at least three times. The genotype of WT, Fgfr3^Y367C/+ and Fgfr3^−/− mice were determined by PCR of tail DNA as previously described (Pannier et al., Biochim Biophys Acta, 1792: 140-147, 2009). All experimental procedures and protocols were approved by the Animal Care and Use Committee.\nFgfr3^Y367C/+ mice display reduced length of long bones, broad femurs, a narrow trunk, short ribs and a slightly dome-shaped skull, closely resembling achondroplasia (FIGS. 3A and B). The inventors analyzed the effects of A31 on endochondral ossification in Fgfr3^Y367C/+ mice by using an ex vivo culture system for embryonic day 16.5 (E16.5) limb explants. […] After 5 days of culture, the increase in length of the treated mutant femurs was 2.6 times more than for that of WT.\nThus, embryonic femur explants were co-incubated with 150 nM of PD173074 for 5 days.\nEmbryonic femur explants were co-incubated 100 nM (10^−7M) or 1 μM (10^−6M) of BGJ-398 for 6 days."}},
  "data": [
    {"smiles": "COc1cc(OC)cc(-c2cc3cnc(NCc4cn(CC5CCCN(C)C5)nn4)nc3nc2NC(=O)NC(C)(C)C)c1", "note": "(stereo not shown) [Compound A31]", "values": [
      {"measurement": "longitudinal bone growth (gain in femur length)", "setting": "WT femurs", "result": "1863±255", "unit": "μm"},
      {"measurement": "cyclin D1 level (Western blot)", "setting": "cyclin D1", "result": "reduced level of cyclin D1"},
      {"measurement": "constitutive FGFR3 receptor phosphorylation (immunoprecipitation and Western blotting)", "setting": "[1]; 2 mM overnight, cells expressing FGFR3^Y373C, FGFR3^K650E, FGFR3^K650M", "result": "abolished receptor phosphorylation"},
      {"measurement": "FGFR3 phosphorylation by immunocytochemistry", "setting": "[1]; transfected cells expressing FGFR3 mutations, data not shown", "result": "complete inhibition"},
      {"measurement": "limb growth in Fgfr3^Y367C/+ femurs (in words)", "setting": "Fgfr3^Y367C/+ femurs; A31 2 mM, 5 days", "result": "fully restore limb growth"},
      {"measurement": "longitudinal bone growth (gain in femur length)", "setting": "Fgfr3^Y367C/+ femurs; A31 2 mM, 5 days of culture, Fgfr3^Y367C/+ femurs", "result": "1880±558", "unit": "μm"},
      {"measurement": "increase in length of treated mutant femurs relative to WT", "setting": "Fgfr3^Y367C/+ femurs; A31, after 5 days of culture", "result": 2.6, "unit": "times"}
    ]}
  ]
}
